Measured values: patent US20010007657A1, “Compositions and methods for manipulating glial progenitor cells and treating neurological deficits” (priority 1997, published 2001)
“Also recorded” adds a separate entry of the source. Each block holds one compound with its values, some of them ahead of it.

Key:
[1] = system: TGFα mRNA; test: In situ hybridization of TGFα mRNA after nigral 6-OHDA lesion and/or striatal TGFα infusion; format: in vivo, rat
From the text: (§1) Adult male Sprague-Dawley rats weighing 250-300 grams were obtained from Simonsen (Gilroy, Calif.) and assigned to one of five treatment groups: (1) striatal TGFα infusion, nigral 6-OHDA lesion (hereafter, “lesion”); (2) TGFα infusion, no lesion; (3) artificial cerebrospinal (aCSF) infusion, lesion; (4) aCSF infusion, no lesion; (5) no infusion, no lesion. Four to eight animals were used per experimental group. The animals were monitored after each surgical procedure until fully recovered and maintained at all other times in a temperature and humidity controlled vivarium.
(§2) Rats were anesthetized with 8 mg xylazine and 100 mg ketamine per kilogram body weight. […] The success and extent of 6-OHDA lesions were monitored by tyrosine hydroxylase (TH) mRNA in situ hybridization in the midbrain. TH is the rate-limiting enzyme in the dopamine synthetic pathway and is a common marker for dopamine-producing neurons. One animal with an incomplete lesion (retaining significant numbers of nigral TH-IR cells) was excluded from the study and is not included in the total number of animals.
(§3) Osmotic minipumps (model 2002, Alzet, Inc.) were implanted four to five weeks post-lesion. […] The minipump itself was placed subcutaneously in the interscapular region.
(§4) At the end of the infusion period, animals were sacrificed by decapitation. Their brains were quickly removed, frozen in isopentane at −20° C., and stored at −70° C. Coronal cryostat sections were cut at 20 μm and thaw-adhered to Vectabond™ (Vector Labs, Inc.) coated slides in ordered anterior-to-posterior rows. The sections were postfixed with 4% paraformaldehyde in 0.1 M phosphate buffer (pH 7.4) for one hour, rinsed in phosphate buffer and air dried. Sections were stored with desiccant at −20° C. until processed.
TGFα mRNA probes were generated from a 550 nucleotide XbaI/BamHI cDNA fragment from the 5′ end of rat TGFα subcloned into pGEM 7Zf (Promega, Inc.). Antisense and sense probes were transcribed with SP6 and T7 polymerases, respectively. […]

[2] = system: EGF receptor mRNA; test: In situ hybridization of EGF receptor mRNA after nigral 6-OHDA lesion and/or striatal TGFα infusion; format: in vivo, rat
From the text: as §1, §2, §3, §4
TGFα mRNA probes were generated from a 550 nucleotide XbaI/BamHI cDNA fragment from the 5′ end of rat TGFα subcloned into pGEM 7Zf (Promega, Inc.). Antisense and sense probes were transcribed with SP6 and T7 polymerases, respectively. Rat EGF receptor mRNA probes were produced from a 718 base pair BamHI/SphI insert from the 5′ end of the gene in pGEM 7Zf. Probes for rat TH were created using the 1.2 kb BamHI/EcoRI fragment subcloned into pGEM 7Zf. Antisense subclones for EGF receptor and TH were transcribed with T7 polymerase. Sense subclones for EGF receptor and TH were transcribed with SP6 polymerase. All probes were radiolabeled by transcription in the presence of [^35S]UTP (NEN Research Products, Inc.).
In situ nucleic acid hybridization was performed according to the method described by Simmons et al. 1989, supra). Parallel sections from experimental and control animals were hybridized overnight at 65° C. with sense or antisense probes at a concentration of 10^7 cpm/ml.

[3] = system: neural precursor cells of the subependymal zone; test: Periventricular cellular expansion and striatal ridge formation (thionin, silver staining, immunohistochemistry); format: in vivo, rat; conditions: for (incidence of striatal ridge) / Expansion (incidence of cellular expansion along ventricle): midstriatal infusion 0.5 μg/day
Procedure: Adult male Sprague-Dawley rats weighing 250-300 grams were used throughout the study. Twenty-four animals received standard midstriatal infusions of rat TGFα (0.5 μg/day; Sigma Chemical Co.). Another 26 rats received either artificial cerebrospinal fluid (“aCSF”) or no infusion. A subset of animals in the standard TGFα infusion group and the control group received stereotaxic 6-OHDA injections into the substantia nigra 48 hours after the infusions were begun. Animals used in this portion of the study were classified into six groups according to their infusion-lesion combination, as follows: TGFα infusion, lesion (n=13); TGFα infusion, no lesion (n=11); aCSF infusion, lesion (n=12); aCSF infusion, no lesion (n=9); no infusion, lesion (n=1); no infusion, no lesion (n=4).
Additional animals received TGFα infusions into other regions of striatum, the lateral ventricle, cerebral cortex, or the septum. Four more animals (two per group) received midstriatal TGFα infusions at one-half or one-tenth the standard dose. Also, two animals received midstriatal infusions of epidermal growth factor (EGF) instead of TGFα. The EGF administered in these rats was at the standard 0.5 μg/day dose. All of the animals in these extra groups were lesioned. Rats in all of the experiments were typically perfused one to 16 days postlesion (3-18 days of infusion). […] Brain sections were prepared and stained using various immunocytochemical and histochemical techniques.
Rats were anesthetized with 8 mg xylazine and 100 mg ketamine/kg. Infusions of TGFα were provided up to 18 days by Alzet osmotic minipump (2002). The minipumps were filled to about 200 μl with either aCSF for control animals or 20 μg TGFα in 400 μl of aCSF (50 μg/ml) for experimental animals. Under sterile conditions, the infusion cannula was positioned to stereotaxic coordinates (+1.2 A/P; +2.7 M/L; −6.0 D/V) based on Bregma (Paxinos and Watson, The Rat Brain in Stereotaxic Coordinates, Academic Press, San Diego, 1986) and cemented to the top of the skull with dental cement. The infusate was delivered via cannula at approximately 0.5 μl/hour. Some additional control animals received infusions either into the lateral ventricle, the overlying cortex, or other areas.
Forty-eight hours after the minipump implant, rats were anesthetized as above. A chilled 4.8 mg/ml solution of 6-OHDA HCl was prepared immediately prior to injection. […] A 6-8 μl volume was injected at a rate of 1 μl/minute.
Animals were perfused with 500 ml of 4% paraformaldehyde in 0.1 M phosphate buffered saline (PBS; pH 7.4) one to 16 days postlesion and their brains placed into 20% sucrose. The next day, the brains were frozen in isopentane at −20° C. Forty-micron coronal sections were then cut on a freezing microtome into 2% paraformaldehyde in 0.1 M PBS. Continuous sections were taken through the striatum and substantia nigra-VTA. Representative sections were taken through the rest of the brain.
Microtomed brain sections for Nissl staining were mounted onto gelatin-coated slides and allowed to dry overnight. They were then dehydrated and rehydrated through ethanol baths, and placed in Thionin solution for approximately four minutes. The sections were dehydrated through the series of ethanol baths, cleared in successive Histoclear™ washes, and coverslipped. Section were viewed under light microscopy and photographed with Technical Pan Film™ (Kodak, Inc.) at ISO 100 (HC-110 processing for six minutes).
Degenerating fibers and cells of the ridge were labeled using a modification to the Nauta staining method, similar to Procedure I of Fink-Heimer (Giolli and Karamanlidis, In: Neuroanatomical Research Techniques, R. T. Robertson, Ed., pp. 211-240, Academic Press, New York, 1978).

[4] = system: stem and neuroprogenitor cells in the SVZ; test: Morphological studies of proliferation, directed migration and differentiation induction (Example 3); format: in vivo, rat
From the text: In situ hybridization histochemistry: TGFα mRNA probes were generated from a 550 nucleotide XbaI/BamHI cDNA fragment from the 5′ end of rat TGFα, subcloned into pGEM 7Zf (Promega, Inc). Antisense and sense probes were transcribed with SP6 and T7 polymerases, respectively. Rat EGF receptor mRNA probes were produced from a 718 base pair BamHI/SphI insert from the 5′ end of the gene in pGEM 7Zf. Probes for rat TH were created using the […] BamHI/EcoRI fragment subcloned into pGEM 7Zf. Antisense subclones for EGF receptor and TH were transcribed with T7 polymerase. Sense subclones for EGF receptor and TH were transcribed with SP6 polymerase. All probes were radiolabeled by transcription in the presence of [35S]UTP (NEN Research, Inc). In situ nucleic acid hybridization was performed according to Simmons (1989) J. Histochem. 12:169-181). Parallel sections from experimental and control animals were hybridized overnight at 65° C. with sense or antisense probes at a concentration of […]. Adjacent sections from the same animals were hybridized to each of the probes so that direct comparison could be made of their anatomical distributions. […] After successful development of the autoradiography film, analysis and quantitation was done using MCID (Imaging Research, Inc).

[5] = system: 6OHDA lesioned animals
[6] = system: neural precursor cells of the subependymal zone; test: Periventricular cellular expansion and striatal ridge formation (thionin, silver staining, immunohistochemistry); format: in vivo, rat; conditions: three months after the TGFα infusion pump was removed
[7] = system: stem and neuroprogenitor cells in the SVZ; test: Morphological studies of proliferation, directed migration and differentiation induction (Example 3); format: in vivo, rat; remark: listed apart in the source
[8] = midstriatal EGF infusion 0.5 μg/day, lesioned animals
[9] = intracerebroventricular (ICV) infusion ipsilateral to lesion, two weeks
[10] = lower doses of TGFα (one-half or one-tenth the standard dose), lesioned
[11] = infusion into the lateral ventricle, 6-OHDA-lesioned

Compound: Cl.NCCc1cc(O)c(O)cc1O [6-OHDA, 6-hydroxydopamine HCl, reference compound]
- contralateral TGFα mRNA hybridization ([1]; unilateral nigral 6-OHDA lesion): no effect
- reduction of TGFα mRNA hybridization in the ipsilateral striatum ([1]; unilateral nigral 6-OHDA lesion, several weeks post-lesion): 25%
- EGF receptor hybridization in the ipsilateral SN-VTA ([2]; 6-OHDA lesion, midbrain): abolished
- striatal and subependymal EGF receptor hybridization ([2]; 6-OHDA lesioned animals compared to normal animals): unchanged

Compound: EGF: epidermal growth factor, infused midstriatally instead of TGFα at 0.5 μg/day (NSDSECPLSHDGYCLHDGVCMYIEALDKYACNCVVGYIGERCQYRDLKWWELR; Epidermal growth factor; UniProt P01133 971-1023, looked up)
- cellular expansion along the ventricle [3, 8]: induced the cellular expansion along the ventricle
- formation of the striatal ridge [3, 8]: did not induce formation of the striatal ridge

- rats with ridge of dense EGF receptor mRNA hybridization in ipsilateral striatum ([2]; TGFα infusion/nonlesion group): one of six
- rats with ridge of dense EGF receptor mRNA hybridization in ipsilateral striatum ([2]; combined TGFα infusion/6-OHDA lesion group): five of the six
Compound: TGFα: transforming growth factor alpha polypeptide, EGF-family growth factor that binds the EGF receptor; infused into rat brain
- TGFα mRNA hybridization in the infused striatum ([1]; unlesioned animals, striatal TGFα infusion two weeks, vs contralateral or normal striata): unchanged
- EGF receptor mRNA hybridization in the ipsilateral subependymal region ([2]; striatal TGFα infusion two weeks, lesioned and unlesioned): dramatically increased; also recorded: approximately doubled
- difference in distance between lateral extents of the ridges and the ventricle wall, 12 vs 16 days of infusion ([3]; 6-OHDA lesion, midstriatal TGFα): approximately 1.6 mm
- distance of ventral portion of the ridge from the ventricle wall ([3]; 12 days infusion, 6-OHDA lesion, midstriatal TGFα): ≤ 400 μm
- distance of ventral portion of the ridge from the ventricle ([3]; 16 days infusion, 6-OHDA lesion, midstriatal TGFα): up to two mm
- nestin immunostaining of the ridge ([3]; TGFα infusion fourteen days, lesioned): intensely stained
- GFAP immunostaining of striatal ridge and cellular expansion ([3]; TGFα-induced ridge, two weeks of infusion): failed to stain
- expansion of cells along the ipsilateral ventricle ([3]; cortical infusions slightly penetrating the corpus callosum, two weeks, lesioned): stimulated expansion of cells
- cell density along the lateral ventricle ([3]; dorsal cortical infusions not penetrating the corpus callosum, two weeks, lesioned): no discernable effect
- buildup of cells in the adjacent ventricular wall [3, 9]: stimulated the buildup of cells
- formation of the striatal ridge [3, 9]: did not induce formation of the striatal ridge
- buildup of cells along the ventricle ipsilateral to the infusion (thionin) ([3]; intrastriatal TGFα infusions of six days or more): dramatic buildup of cells
- cellular expansion and ridge formation [3, 10]: induced both the cellular expansion and ridge formation
- number of cells in expansion and ridge (qualitative) [3, 10]: decreased
- (incidence of striatal ridge) ([3]; 6-OHDA lesion, n=13): 92%
- Expansion (incidence of cellular expansion along ventricle) ([3]; 6-OHDA lesion, n=13): 100%
- (incidence of striatal ridge) ([3]; no lesion, n=11): 27%
- Expansion (incidence of cellular expansion along ventricle) ([3]; no lesion, n=11): 100%
- formation of septal ridges ([3]; septal and some striatal infusions, two weeks, lesioned): stimulated the formation of septal ridges
- expression of EGFr mRNA in the SVZ ([4]; 6-OHDA lesion and TGF alpha infusion): significant increase
- expression of EGFr mRNA in the SVZ ([4]; TGF alpha infusion, no 6-OHDA lesion): significant increase
- apomorphine-induced rotations ([5]; animals receiving the TGFα infusions): significant reduction
- improvement in rotational behavior, TGFα versus aCSF-treated control animals ([5]; infusion 14 days after 6-OHDA lesion, 14-day striatal infusion, p<0.05): 38%
- animals not exhibiting rotational behavioral asymmetry following apomorphine ([5]; infusion contemporaneous with 6-OHDA lesion, entire four-week period): 10 of the 11
- other motor behaviors (exploratory, consummatory behavior) ([5]; rat, in vivo): did not appear to be adversely affected
- persistence of the ridge in the striatum [6]: still prominent
- effectiveness in inducing ridge formation ([7]; 10 ug dose): minimally less effective
- thickening of the SVZ ([7]; 4 to 6 days of continuous infusion, lesioned animals): pronounced thickening of the SVZ
- effectiveness in inducing ridge formation ([7]; 50 and 100 ug dose): equally effective
- 5′BrdU incorporation into the SVZ ([7]; first three days of infusion): massively increased incorporation
- nestin staining of SVZ and ridge cells ([7]; from the fourth day of infusion): nestin-positive
- SVZ proliferation [7, 11]: temporary proliferation of SVZ cells
- migratory ridge [7, 11]: no migratory ridge
- SVZ proliferation ([7]; infusion into the septum): massive proliferation of the SVZ
- β-III tubulin (neuronal lineage) staining ([7]; starting at 14 days of infusion): β-III tubulin positive cells were seen
- tyrosine hydroxylase (TH) positive cells in the striatum ([7]; third and fourth week of infusion, 6-OHDA-lesioned): increasing numbers of TH positive cells
